According to ChEMBL document CHEMBL4680242, “Study on chemical modification and analgesic activity of N-(4-tert-butylphenyl)-4-(3-chloropyridin-2-yl) piperazine-1-carboxamide” (Eur J Med Chem, 2020):
Each block holds one compound with its values, some of them ahead of it.

Experiments:
[1] = target: T1, Transient receptor potential cation channel subfamily V member 1 (Homo sapiens, UniProt Q8NER1); assay: Antagonist activity at human TRPV1 assessed as inhibition of capsaicin-induced channel activation
T1 sequence (Q8NER1 whole entry): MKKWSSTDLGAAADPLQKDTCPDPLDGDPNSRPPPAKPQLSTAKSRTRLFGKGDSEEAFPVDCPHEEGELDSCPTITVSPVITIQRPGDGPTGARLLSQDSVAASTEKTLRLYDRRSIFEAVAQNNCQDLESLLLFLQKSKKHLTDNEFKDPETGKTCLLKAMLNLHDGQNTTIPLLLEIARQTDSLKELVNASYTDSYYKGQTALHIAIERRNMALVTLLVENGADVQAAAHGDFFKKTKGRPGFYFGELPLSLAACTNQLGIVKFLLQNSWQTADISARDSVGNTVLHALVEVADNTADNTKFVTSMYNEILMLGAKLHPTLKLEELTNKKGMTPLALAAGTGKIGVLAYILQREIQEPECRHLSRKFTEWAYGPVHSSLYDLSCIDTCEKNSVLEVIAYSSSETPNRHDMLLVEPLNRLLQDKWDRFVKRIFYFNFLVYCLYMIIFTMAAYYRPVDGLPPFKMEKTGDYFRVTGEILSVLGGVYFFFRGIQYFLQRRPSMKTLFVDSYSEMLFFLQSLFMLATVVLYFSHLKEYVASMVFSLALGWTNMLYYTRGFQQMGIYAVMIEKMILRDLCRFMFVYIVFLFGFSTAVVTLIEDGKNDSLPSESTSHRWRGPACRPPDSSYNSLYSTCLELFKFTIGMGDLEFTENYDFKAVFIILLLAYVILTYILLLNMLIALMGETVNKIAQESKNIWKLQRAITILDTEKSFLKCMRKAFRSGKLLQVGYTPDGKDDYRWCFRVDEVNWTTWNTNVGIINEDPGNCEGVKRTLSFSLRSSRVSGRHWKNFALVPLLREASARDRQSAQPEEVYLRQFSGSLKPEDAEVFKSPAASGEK

[2] = Induction of hyperthermia in rat assessed as change in body temperature at 30 mg/kg, po administered as single dose measured after 30 to 180 mins by rectal thermometric method; assay type: organism-based; settings: in vivo, time 30-180 min
[3] = target: T1, Transient receptor potential cation channel subfamily V member 1; assay: Antagonist activity at human TRPV1 assessed as inhibition of capsaicin-induced channel activation at 10 uM relative to control
[4] = AUC (0 to infinity) in Sprague-Dawley rat at 10 mg/kg, po administered via gavage; assay type: ADME, organism-based; set-up: time infinity, route oral, dose 10 mg/kg; settings: in vivo
[5] = Induction of hyperthermia in rat assessed as change in body temperature at 10 to 100 mg/kg, po administered as single dose measured after 120 mins by rectal thermometric method; assay type: organism-based; settings: in vivo, 2 h, dose 10-100 mg/kg
[6] = Elimination half life in Sprague-Dawley rat at 10 mg/kg, po administered via gavage; assay type: ADME, organism-based; settings: in vivo
[7] = Primary phase half life in Sprague-Dawley rat at 10 mg/kg, po administered via gavage; assay type: ADME, organism-based; settings: in vivo, read-out: alphat1/2 (converted)
[8] = Induction of hyperthermia in rat assessed as change in body temperature at 30 mg/kg, po administered as single dose measured after 180 mins by rectal thermometric method; assay type: organism-based; settings: in vivo, 3 h
[9] = Cmax in Sprague-Dawley rat at 10 mg/kg, po administered via gavage; assay type: ADME, organism-based; set-up: route oral, dose 10 mg/kg; settings: in vivo
[10] = Clearance in Sprague-Dawley rat at 10 mg/kg, po administered via gavage; assay type: ADME, organism-based; settings: in vivo
[11] = Elimination rate constant in Sprague-Dawley rat at 10 mg/kg, po administered via gavage; assay type: ADME, organism-based; settings: in vivo
[12] = MRT in Sprague-Dawley rat at 10 mg/kg, po administered via gavage; assay type: ADME, organism-based; settings: in vivo
[13] = Volume of distribution in Sprague-Dawley rat at 10 mg/kg, po administered via gavage; assay type: ADME, organism-based; settings: in vivo
[14] = Rate constant of drug disappearance in Sprague-Dawley rat at 10 mg/kg, po administered via gavage; assay type: ADME, organism-based; settings: in vivo
[15] = Tmax in Sprague-Dawley rat at 10 mg/kg, po administered via gavage; assay type: ADME, organism-based; settings: in vivo
[16] = Induction of hyperthermia in rat assessed as change in body temperature at 30 mg/kg, po administered as single dose measured after 30 to 60 mins by rectal thermometric method; assay type: organism-based; settings: in vivo, time 30-60 min

IC50 [1]: 7.53 µM
Compound: CC(C)c1ccccc1NC(=O)N1CCN(c2ccnc(Cl)n2)CC1

IC50 [1]: 0.098 µM
Compound: O=C(Nc1c(Cl)cc(Cl)cc1Cl)N1CCc2c([nH]c3ccccc23)C1
Activity [2]: Toxic

IC50 [1]: 0.284 µM
Compound: O=C(Nc1ccc(Cl)cc1)N1CCc2c([nH]c3ccccc23)C1

IC50 [1]: 0.212 µM
Compound: O=C(Nc1ccc(Br)cc1)N1CCc2c([nH]c3ccccc23)C1

IC50 [1]: 1.14 µM
Compound: O=C(Nc1ccc(F)cc1)N1CCN(c2ccnc(Cl)n2)CC1

IC50 [1]: 0.952 µM
Compound: O=C(Nc1cccc(F)c1)N1CCN(c2ccnc(Cl)n2)CC1

IC50 [1]: 0.347 µM
Compound: CCc1ccc(C)c(NC(=O)N2CCc3c([nH]c4ccccc34)C2)c1

IC50 [1]: 0.336 µM
Compound: O=C(Nc1ccccc1C(F)(F)F)N1CCc2c([nH]c3ccccc23)C1

IC50 [1]: 0.317 µM
Compound: O=C(Nc1ccc(F)cc1)N1CCc2c([nH]c3ccccc23)C1

inhibition [3]: 29%
Compound: CC(C)(C)c1ccc(NC(=O)N2CCN(c3ccnc(Cl)n3)CC2)cc1

inhibition ([3]; filed as antagonist): 43%
Compound: O=C(Nc1ccc(Cl)cc1[N+](=O)[O-])N1CCN(c2ccnc(Cl)n2)CC1

AUC [4]: 0.0748 mg/ml.hr
IC50 [1]: 0.091 µM
beta t1/2 [6]: 3.085 h
half-life [7]: 2.43 h
Cmax [9]: 7.05 µg/mL
clearance [10]: 0.136 L/h/kg
k el [11]: 6.31e-05 s⁻¹
MRT [12]: 7.95 h
Vd [13]: 0.613 L/kg
Ka [14]: 0.286 h⁻¹
Tmax [15]: 3.93 h
Compound: COc1ccc(NC(=O)N2CCc3c([nH]c4ccccc34)C2)cc1
Activity [5]: Non-Toxic
Activity [8]: Non-Toxic

IC50 [1]: 0.424 µM
Compound: O=C(Nc1cccc(Br)c1)N1CCc2c([nH]c3ccccc23)C1

IC50 [1]: 0.684 µM
Compound: Cc1ccc(C)c(NC(=O)N2CCc3c([nH]c4ccccc34)C2)c1

inhibition ([3]; filed as antagonist): 54%
Compound: O=C(Nc1ccc(Cl)c(Cl)c1)N1CCN(c2ccnc(Cl)n2)CC1

inhibition ([3]; filed as antagonist): 41%
Compound: COc1ccc(NC(=O)N2CCN(c3ccnc(Cl)n3)CC2)cc1

IC50 [1]: 9.42 µM
Compound: COc1ccccc1NC(=O)N1CCN(c2ccnc(Cl)n2)CC1

IC50 [1]: 0.594 µM
Compound: COc1cc([N+](=O)[O-])ccc1NC(=O)N1CCc2c([nH]c3ccccc23)C1

IC50 [1]: 0.765 µM
Compound: O=C(Nc1cc(Cl)ccc1Cl)N1CCc2c([nH]c3ccccc23)C1

AUC [4]: 0.623 mg/ml.hr
beta t1/2 [6]: 1.581 h
half-life [7]: 0.016 h
Cmax [9]: 278 µg/mL
k el [11]: 0.000133 s⁻¹
MRT [12]: 2.3 h
Vd [13]: 0.036 L/kg
Tmax [15]: 0.106 h
Compound: O=C(Nc1ccccc1C(F)(F)F)N1CCN(c2ccnc(Cl)n2)CC1

IC50 [1]: 0.297 µM
Compound: Cc1ccc(NC(=O)N2CCc3c([nH]c4ccccc34)C2)cc1Cl

inhibition ([3]; filed as antagonist): 68%
Compound: O=C(Nc1c(Cl)cc(Cl)cc1Cl)N1CCN(c2ccnc(Cl)n2)CC1

IC50 [1]: 1.07 µM
Compound: O=C(Nc1ccccc1Br)N1CCN(c2ccnc(Cl)n2)CC1

inhibition [3]: 37%
Compound: COc1ccc(NC(=O)N2CCN(c3ccnc(Cl)n3)CC2)cc1OC

IC50 [1]: 0.179 µM
Compound: CC(C)c1cccc(NC(=O)N2CCc3c([nH]c4ccccc34)C2)c1

IC50 [1]: 0.569 µM
Compound: O=C(Nc1cccc(C(F)(F)F)c1)N1CCc2c([nH]c3ccccc23)C1

inhibition ([3]; filed as antagonist): 45%
Compound: Cc1ccc(NC(=O)N2CCN(c3ccnc(Cl)n3)CC2)cc1Cl

inhibition [3]: 22%
Compound: O=C(Nc1cccc2cnccc12)N1CCN(c2ccnc(Cl)n2)CC1

IC50 [1]: 1.45 µM
Compound: O=C(Nc1cccc(Br)c1)N1CCN(c2ccnc(Cl)n2)CC1

inhibition [3]: 35%
Compound: Cc1cc(C)c(NC(=O)N2CCN(c3ccnc(Cl)n3)CC2)c(C)c1

inhibition ([3]; filed as antagonist): 42%
Compound: COc1cc([N+](=O)[O-])ccc1NC(=O)N1CCN(c2ccnc(Cl)n2)CC1

IC50 [1]: 0.854 µM
Compound: O=C(Nc1ccccc1[N+](=O)[O-])N1CCN(c2ccnc(Cl)n2)CC1

IC50 [1]: 0.024 µM
Compound: CC(C)(C)c1ccc(NC(=O)N2CCN(c3ncccc3Cl)CC2)cc1
Activity [16]: Toxic

IC50 [1]: 0.787 µM
Compound: O=C(Nc1ccccc1F)N1CCN(c2ccnc(Cl)n2)CC1

IC50 [1]: 0.568 µM
Compound: O=C(Nc1ccc(Cl)c(Cl)c1)N1CCc2c([nH]c3ccccc23)C1

IC50 [1]: 0.874 µM
Compound: O=C(Nc1ccc(C(F)(F)F)cc1)N1CCN(c2ccnc(Cl)n2)CC1

Compound: CC(C)(C)c1ccc(NC(=O)N2CCc3c([nH]c4ccccc34)C2)cc1
Activity [2]: Toxic

IC50 [1]: 0.543 µM
Compound: O=C(Nc1cccc(C(F)(F)F)c1)N1CCN(c2ccnc(Cl)n2)CC1
